According to article PMC7953826 (Nature cell biology, 2020):

Assays:
hDyn2 = target: T1, hDyn2 (Homo sapiens, UniProt P50570); assay: negative-stain EM, GTP-induced helix disassembly on actin bundles; format: binding; conditions: 1 mM GTP, with actin, room temperature, 30 min
T1 sequence (P50570 1-870): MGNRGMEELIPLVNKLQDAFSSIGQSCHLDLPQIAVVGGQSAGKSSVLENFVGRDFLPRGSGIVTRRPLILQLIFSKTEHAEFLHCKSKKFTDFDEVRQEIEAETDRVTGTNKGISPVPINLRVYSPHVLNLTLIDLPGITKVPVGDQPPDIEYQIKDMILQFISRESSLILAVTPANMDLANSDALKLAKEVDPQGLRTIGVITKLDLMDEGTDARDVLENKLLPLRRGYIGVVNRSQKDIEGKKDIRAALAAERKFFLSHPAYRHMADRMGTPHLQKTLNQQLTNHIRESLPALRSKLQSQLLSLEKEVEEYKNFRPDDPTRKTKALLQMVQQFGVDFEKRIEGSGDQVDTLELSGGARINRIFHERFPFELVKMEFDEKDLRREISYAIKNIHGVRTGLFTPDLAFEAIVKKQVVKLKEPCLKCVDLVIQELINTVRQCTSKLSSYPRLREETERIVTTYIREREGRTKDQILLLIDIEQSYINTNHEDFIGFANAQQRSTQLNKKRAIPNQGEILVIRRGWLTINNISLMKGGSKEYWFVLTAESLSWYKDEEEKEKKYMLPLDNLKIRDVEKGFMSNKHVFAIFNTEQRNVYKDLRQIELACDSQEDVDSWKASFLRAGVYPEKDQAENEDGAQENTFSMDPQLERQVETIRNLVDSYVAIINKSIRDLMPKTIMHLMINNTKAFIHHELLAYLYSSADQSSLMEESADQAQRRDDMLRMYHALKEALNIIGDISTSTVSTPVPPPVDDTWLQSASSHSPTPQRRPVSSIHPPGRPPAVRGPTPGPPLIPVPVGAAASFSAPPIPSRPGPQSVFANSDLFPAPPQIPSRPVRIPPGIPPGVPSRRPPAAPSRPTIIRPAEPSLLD

hDyn1 = target: T2, hDyn1 (Homo sapiens, UniProt Q05193); assay: as above; format: binding; conditions: 1 mM GTP, with actin, room temperature, 30 min
T2 sequence (Q05193 1-864): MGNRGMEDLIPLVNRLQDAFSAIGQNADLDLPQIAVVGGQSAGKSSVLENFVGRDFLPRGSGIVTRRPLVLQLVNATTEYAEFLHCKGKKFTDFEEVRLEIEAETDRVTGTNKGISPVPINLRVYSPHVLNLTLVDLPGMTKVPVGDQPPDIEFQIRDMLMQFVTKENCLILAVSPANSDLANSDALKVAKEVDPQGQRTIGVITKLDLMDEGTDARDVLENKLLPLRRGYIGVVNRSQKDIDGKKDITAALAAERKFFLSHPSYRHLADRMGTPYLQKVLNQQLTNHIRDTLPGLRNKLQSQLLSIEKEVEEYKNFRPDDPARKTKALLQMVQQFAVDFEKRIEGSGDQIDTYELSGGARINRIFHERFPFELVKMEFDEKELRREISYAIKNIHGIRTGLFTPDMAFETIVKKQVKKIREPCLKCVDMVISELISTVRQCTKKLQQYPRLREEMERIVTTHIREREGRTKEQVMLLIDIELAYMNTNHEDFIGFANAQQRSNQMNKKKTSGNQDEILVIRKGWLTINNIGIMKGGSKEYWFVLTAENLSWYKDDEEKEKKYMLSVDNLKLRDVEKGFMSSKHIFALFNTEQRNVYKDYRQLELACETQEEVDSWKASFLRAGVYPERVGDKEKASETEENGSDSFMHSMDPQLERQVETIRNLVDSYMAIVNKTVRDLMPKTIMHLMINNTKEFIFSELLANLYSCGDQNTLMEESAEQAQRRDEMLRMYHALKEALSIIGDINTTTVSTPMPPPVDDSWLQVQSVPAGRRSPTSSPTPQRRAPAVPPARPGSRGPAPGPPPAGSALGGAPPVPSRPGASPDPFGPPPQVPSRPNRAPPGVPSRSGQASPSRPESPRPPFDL

For `Nc1nc2c(ncn2[C@@H]2O[C@H](COP(=O)(O)OP(=O)(O)OP(=O)(O)O)[C@@H](O)[C@H]2O)c(=O)[nH]1` [GTP], the “negative-stain EM, GTP-induced helix disassembly on actin bundles” value (hDyn2) was “hDyn1 and hDyn2 helices along actin bundles were disassembled upon GTP addition” and the “negative-stain EM, GTP-induced helix disassembly on actin bundles” value (hDyn1) was “hDyn1 and hDyn2 helices along actin bundles were disassembled upon GTP addition”.
